# Data as given in patent US6864275B1, “Compounds and methods for use thereof in the treatment of cancer” (UAF Technologies and Research, LLC, priority 1997, dated 2005).
# Tests used:
# Tubulin = assay: Microtubule inhibition assay (tubulin polymerization, absorbance at 350 nm); assay type: biochemical, bovine; conditions: compound at 2 μM, after 30 minutes
# Procedure: The benzimidazole derivatives of this invention were evaluated for their ability to inhibit formation of microtubules, following the procedure of Luduena, R. F. and M. C. […] Microtubule polymerization was followed by performing the reaction in a cuvette and monitoring UV absorbance at 350 nm, allowing direct visualization of the time course of the polymerization.
# B16 murine melanoma = assay: MTT cell growth inhibition, B16 melanoma cells; assay type: cell-based; conditions: 3-6 days incubation
# Procedure: (§1) The following cell culture tests were performed to test the toxicity of benzimidazole derivative compounds of the present invention on colon and melanoma tumor cells. The viability of the cells were tested by looking at MTT (3-[4,5-dimethylthiazol-2-yl]-2,5-diphenyltetrazolium bromide) reduction. MTT assay is a well known measure of cell viability.
# (§2) The colon tumor cells (HT29) and the melanoma cells (B16 murine melanoma) were seeded (1000-2000 cells) into each well of a 96-well microtiter plate and allowed to grow. Twenty-four hours later, increasing concentrations of each benzimidazole derivative were added to the plates and the cells were allowed to incubate for 3-6 days in the presence of the drugs. MTT reagent was then added to the wells and allowed to incubate for 4 hours at 37° C., after which the formazan metabolite was solubilized with acidic isopropanol and the absorbance was read. Experimental controls included blank wells to which no cells were added (zero point of formazan absorbance) and control wells to which no drug was added (highest level of formazan absorbance). Each drug concentration was tested in duplicate and the resulting average absorbance was plotted against drug concentration using the EZ-ED50 computer program on a personal computer interfaced to the microtiter plate reader. […] The IC50 value is then derived from this equation by EZ-ED50.
# colon tumor cells (HT29) = assay: MTT cell growth inhibition, HT29 colon tumor cells; assay type: cell-based; conditions: 3-6 days incubation, read-out: IC50 Human Colon Carcinoma
# Procedure: as §1, §2
IC50 (B16 murine melanoma),IC50 (colon tumor cells (HT29)),Compound,"Tubulin Polymerization Inhibition, % Inhibition (Tubulin)"
0.94 µM,0.61 µM,COC(=O)Nc1nc2ccc(C(=O)OC(CF)CF)cc2[nH]1 [3-15],45%
0.077 µM,0.046 µM,COC(=O)Nc1nc2ccc(C(=O)OCCC(C)CCC=C(C)C)cc2[nH]1 (stereo not drawn) [3-21],2%
6.1 µM,4.2 µM,COC(=O)Nc1nc2ccc(C(=O)Nc3cc(OC)c(OC)c(OC)c3)cc2[nH]1 [2-15],5%
0.97 µM,0.3 µM,COC(=O)Nc1nc2ccc(C(=O)OCCF)cc2[nH]1 [3-17],8%
0.25 µM,0.17 µM,COC(=O)Nc1nc2ccc(OC(=O)c3cc(OC)c(OC)c(OC)c3)cc2[nH]1 [Cpd. No. 4-1],2%
2.8 µM,2.3 µM,COC(=O)Nc1nc2ccc(C(=O)Nc3ccccc3O)cc2[nH]1 [2-13],27%
0.062 µM,0.03 µM,COC(=O)Nc1nc2ccc(C(=O)OC(C)C3CC3)cc2[nH]1 (stereo not drawn) [3-16],44%
5.9 µM,5.1 µM,COC(=O)Nc1nc2ccc(C(=O)NCCC(C)C)cc2[nH]1 [2-5],37%
0.22 µM,0.059 µM,C=CCOC(=O)c1ccc2nc(NC(=O)OC)[nH]c2c1 [3-3],42%
0.37 µM,228 µM,CCC(CC)NC(=O)c1ccc2nc(NC(=O)OC)[nH]c2c1 [2-9],16%
30.5 µM,17.1 µM,COCCNC(=O)c1ccc2nc(NC(=O)OC)[nH]c2c1 [2-11],19%
1.2 µM,2.1 µM,COC(=O)Nc1nc2ccc(C(=O)OC(CBr)CBr)cc2[nH]1 [3-18],none
0.21 µM,0.054 µM,COC(=O)Nc1nc2ccc(C(=O)OCCCCl)cc2[nH]1 [3-9],none

Compound,IC50 (B16 murine melanoma),IC50 (colon tumor cells (HT29)),"Tubulin Polymerization Inhibition, % Inhibition (Tubulin)"
COC(=O)Nc1nc2c(OC(=O)c3cc(OC)c(OC)c(OC)c3)cccc2[nH]1 [Cpd. No. 1-2],14 µM,26.3 µM,35%
COC(=O)Nc1nc2c(OC(=O)CC(C)CC(C)(C)C)cccc2[nH]1 (stereo not drawn) [Cpd. No. 1-1],20.1 µM,15.8 µM,38%
